Data as given in paper PMC4182912 (Journal of medicinal chemistry, 2008).

What was measured:
[1] = system: P-glycoprotein (P-gp) efflux pumps; conditions: cited from earlier work
recombinant hCB1r = recombinant hCB1r (Homo sapiens, UniProt P21554); format: biochemical
Chain of recombinant hCB1r (P21554 whole entry): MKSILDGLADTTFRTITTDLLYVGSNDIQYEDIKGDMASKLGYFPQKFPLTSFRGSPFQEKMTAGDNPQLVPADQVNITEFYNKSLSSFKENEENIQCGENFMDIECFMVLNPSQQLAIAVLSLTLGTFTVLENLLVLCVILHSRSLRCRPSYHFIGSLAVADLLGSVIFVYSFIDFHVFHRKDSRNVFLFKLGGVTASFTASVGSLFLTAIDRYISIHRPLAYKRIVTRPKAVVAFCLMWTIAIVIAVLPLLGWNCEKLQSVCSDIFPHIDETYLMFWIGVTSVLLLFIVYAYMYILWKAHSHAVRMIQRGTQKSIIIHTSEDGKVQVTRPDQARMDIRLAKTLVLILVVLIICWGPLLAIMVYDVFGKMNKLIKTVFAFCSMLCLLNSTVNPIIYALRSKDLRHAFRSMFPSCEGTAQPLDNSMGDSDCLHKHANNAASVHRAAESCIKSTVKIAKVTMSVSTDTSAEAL

| SMILES | substrate behavior for P-gp efflux pumps [1] | eudismic ratio (CB1 receptor affinity, (-)- vs (+)-enantiomer) (recombinant hCB1r) |
| --- | --- | --- |
| CN=C(NS(=O)(=O)c1ccc(Cl)cc1)N1C[C@H](c2ccccc2)C(c2ccc(Cl)cc2)=N1 [Ligand 3, (4S)-3-(4-chlorophenyl)-N-methyl-N’-[(4-chlorophenyl)sulfonyl]-4-phenyl-4,5-dihydro-1H-pyrazole-1-carboxamidine] | little to no substrate behavior | – |
| NC(=NS(=O)(=O)c1ccc(I)cc1)N1CC(c2ccccc2)C(c2ccc(Cl)cc2)=N1 (stereo not drawn) [Ligand 12c, 3-(4-Chlorophenyl)-N’-[(4-iodophenyl)sulfonyl]-4-phenyl-4,5-dihydro-1H-pyrazole-1-carboxamidine] | – | ~56 |
| N#Cc1ccc(S(=O)(=O)N=C(N)N2CC(c3ccccc3)C(c3ccc(Cl)cc3)=N2)cc1 (stereo not drawn) [Ligand 12a, 3-(4-Chlorophenyl)-N’-[(4-cyanophenyl)sulfonyl]-4-phenyl-4,5-dihydro-1H-pyrazole-1-carboxamidine] | – | about 35 |
